Results: PubChem BioAssay AID1963423 (Molecular Pharmacology Branch, DTP, NCI, 2024)

Tested on: 439559-082-T-J2-PDC complex spheroid growth
Assay: Anticancer human tumor 439559-082-T-J2-PDC patient-derived colon adenocarcinoma cell line growth inhibition [Asc]
Conditions: for IC50: curve of first compound; for viability, T/C: stronger effect = lower value
How it was run: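 Complex solid-tumor spheroids incorporating human endothelial and mesenchymal stem cells received single agents or combinations over half-log dilution ranges anchored to clinical Cmax.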
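Further: spheroids exposed to agents for 7 days starting day 3 after seeding.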
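Wherever viability, T/C is given: percent of DMSO vehicle control viability with 100% = vehicle.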

Structure (SMILES): C=CC(=O)N1CCN(c2nc(=O)n(-c3c(C)ccnc3C(C)C)c3nc(-c4c(O)cccc4F)c(F)cc23)C(C)C1 (configuration not stated) + CNC(C)C(=O)NC1CN(S(=O)(=O)c2cccc(S(=O)(=O)N3CCC4CCC(C(=O)NC(c5ccccc5)c5ccccc5)N4C(=O)C(NC(=O)C(C)NC)C3)c2)CCC2CCC(C(=O)NC(c3ccccc3)c3ccccc3)N2C1=O
- IC50 (second compound 0.00316 µM): > 10 µM
- IC50 (second compound 0.01 µM): > 10 µM
- IC50 (second compound 0.0316 µM): > 10 µM
- IC50 (second compound 0.1 µM): > 10 µM
- IC50 (second compound 0.316 µM): > 10 µM
- IC50 (second compound 1 µM): > 10 µM
- viability, T/C (second compound 0.00316 µM, first compound 0.0316 µM): 103%
- viability, T/C (second compound 0.00316 µM, first compound 0.1 µM): 94.8%
- viability, T/C (second compound 0.00316 µM, first compound 0.316 µM): 97.2%
- viability, T/C (second compound 0.00316 µM, first compound 1 µM): 101%
- viability, T/C (second compound 0.00316 µM, first compound 3.16 µM): 105%
- viability, T/C (second compound 0.00316 µM, first compound 10 µM): 102%
- viability, T/C (second compound 0.01 µM, first compound 0.0316 µM): 110%
- viability, T/C (second compound 0.01 µM, first compound 0.1 µM): 94.9%
- viability, T/C (second compound 0.01 µM, first compound 0.316 µM): 95.5%
- viability, T/C (second compound 0.01 µM, first compound 1 µM): 107%
- viability, T/C (second compound 0.01 µM, first compound 3.16 µM): 111%
- viability, T/C (second compound 0.01 µM, first compound 10 µM): 103%
- viability, T/C (second compound 0.0316 µM, first compound 0.0316 µM): 93.6%
- viability, T/C (second compound 0.0316 µM, first compound 0.1 µM): 95.3%
- viability, T/C (second compound 0.0316 µM, first compound 0.316 µM): 89.9%
- viability, T/C (second compound 0.0316 µM, first compound 1 µM): 99%
- viability, T/C (second compound 0.0316 µM, first compound 3.16 µM): 95%
- viability, T/C (second compound 0.0316 µM, first compound 10 µM): 99.6%
- viability, T/C (second compound 0.1 µM, first compound 0.0316 µM): 111%
- viability, T/C (second compound 0.1 µM, first compound 0.1 µM): 105%
- viability, T/C (second compound 0.1 µM, first compound 0.316 µM): 100%
- viability, T/C (second compound 0.1 µM, first compound 1 µM): 93.8%
- viability, T/C (second compound 0.1 µM, first compound 3.16 µM): 104%
- viability, T/C (second compound 0.1 µM, first compound 10 µM): 91.3%
- viability, T/C (second compound 0.316 µM, first compound 0.0316 µM): 105%
- viability, T/C (second compound 0.316 µM, first compound 0.1 µM): 109%
- viability, T/C (second compound 0.316 µM, first compound 0.316 µM): 99.9%
- viability, T/C (second compound 0.316 µM, first compound 1 µM): 105%
- viability, T/C (second compound 0.316 µM, first compound 3.16 µM): 94%
- viability, T/C (second compound 0.316 µM, first compound 10 µM): 103%
- viability, T/C (second compound 1 µM, first compound 0.0316 µM): 81.9%
- viability, T/C (second compound 1 µM, first compound 0.1 µM): 78%
- viability, T/C (second compound 1 µM, first compound 0.316 µM): 85.4%
- viability, T/C (second compound 1 µM, first compound 1 µM): 76.3%
- viability, T/C (second compound 1 µM, first compound 3.16 µM): 101%
- viability, T/C (second compound 1 µM, first compound 10 µM): 93.6%
